pEC50, pIC50: −log10 of the molar value. In brackets after ≈: the same amount, converted by molar mass.
Assays:
[1] = target: T1, Bifunctional epoxide hydrolase 2 (Homo sapiens) (UniProt P34913); settings: Sf21, at 1 µM
T1 sequence (whole entry): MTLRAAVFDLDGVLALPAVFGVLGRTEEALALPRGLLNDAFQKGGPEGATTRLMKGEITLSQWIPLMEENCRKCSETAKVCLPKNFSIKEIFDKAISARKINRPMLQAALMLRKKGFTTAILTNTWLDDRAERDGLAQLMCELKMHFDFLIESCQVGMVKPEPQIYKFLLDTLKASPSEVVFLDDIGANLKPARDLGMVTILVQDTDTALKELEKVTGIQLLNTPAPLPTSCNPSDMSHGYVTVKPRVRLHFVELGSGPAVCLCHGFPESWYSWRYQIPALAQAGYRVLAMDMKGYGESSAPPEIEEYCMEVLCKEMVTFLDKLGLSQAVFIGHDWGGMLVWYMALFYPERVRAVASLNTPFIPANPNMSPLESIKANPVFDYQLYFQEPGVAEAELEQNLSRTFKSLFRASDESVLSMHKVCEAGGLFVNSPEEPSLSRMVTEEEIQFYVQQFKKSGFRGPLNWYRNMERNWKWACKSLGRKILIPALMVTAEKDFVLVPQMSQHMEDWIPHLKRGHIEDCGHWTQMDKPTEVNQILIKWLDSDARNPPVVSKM
Description: Inhibition of N-terminal His-tagged recombinant human soluble epoxide hydrolase (2 to 555 residues) expressed in Sf21 insect cells at 1 uM using as 14,15-EET as substrate after 10 mins by reversed-phase HPLC assay relative to control

[2] = Oral bioavailability in Sprague-Dawley (RjHan:SD) rat at 3 mg/kg administered via gavage by LC-MS analysis; type: ADME, organism-based; settings: in vivo
[3] = Negative chronotropic activity in Wistar rat neonatal cardiomyocytes assessed as change in basal beating rate after 7 mins by inverted microscopic method; type: functional
[4] = Intrinsic clearance in human hepatocytes assessed per million cells at 1 uM measured up to 180 mins by LC-ESI-MS/MS analysis; type: ADME, cell-based, Hepatocyte; settings: read-out: CLH
[5] = Apparent permeability across basolateral to apical side in human Caco2 cells at 10 uM after 15 to 90 mins by LC-ESI-MS/MS analysis; type: ADME, cell-based; settings: Caco-2
Cytochrome P450 2B6 = target: T2, Cytochrome P450 2B6 (Homo sapiens, UniProt P20813); assay: Inhibition of human CYP2B6 by fluorescence method; type: ADME
T2 sequence (P20813 whole entry): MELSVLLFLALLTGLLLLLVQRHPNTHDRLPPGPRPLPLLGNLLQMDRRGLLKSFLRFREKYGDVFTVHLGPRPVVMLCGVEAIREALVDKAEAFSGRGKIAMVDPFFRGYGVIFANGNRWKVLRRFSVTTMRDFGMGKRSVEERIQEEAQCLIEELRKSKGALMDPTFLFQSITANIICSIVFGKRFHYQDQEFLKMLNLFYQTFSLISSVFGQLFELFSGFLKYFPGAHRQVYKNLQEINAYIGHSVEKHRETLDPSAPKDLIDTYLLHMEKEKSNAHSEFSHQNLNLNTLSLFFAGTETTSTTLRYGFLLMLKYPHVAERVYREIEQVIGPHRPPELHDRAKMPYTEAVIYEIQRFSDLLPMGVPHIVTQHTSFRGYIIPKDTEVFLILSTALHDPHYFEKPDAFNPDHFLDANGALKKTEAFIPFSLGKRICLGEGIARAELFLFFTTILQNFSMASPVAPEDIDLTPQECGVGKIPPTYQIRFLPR

Cytochrome P450 3A4 = Cytochrome P450 3A4 (Homo sapiens, UniProt P08684); assay: Inhibition of recombinant human CYP3A4 expressed in supersomes using 7-benzyloxyquinoline as substrate by fluorescence method; type: ADME
Sequence of Cytochrome P450 3A4 (P08684 whole entry): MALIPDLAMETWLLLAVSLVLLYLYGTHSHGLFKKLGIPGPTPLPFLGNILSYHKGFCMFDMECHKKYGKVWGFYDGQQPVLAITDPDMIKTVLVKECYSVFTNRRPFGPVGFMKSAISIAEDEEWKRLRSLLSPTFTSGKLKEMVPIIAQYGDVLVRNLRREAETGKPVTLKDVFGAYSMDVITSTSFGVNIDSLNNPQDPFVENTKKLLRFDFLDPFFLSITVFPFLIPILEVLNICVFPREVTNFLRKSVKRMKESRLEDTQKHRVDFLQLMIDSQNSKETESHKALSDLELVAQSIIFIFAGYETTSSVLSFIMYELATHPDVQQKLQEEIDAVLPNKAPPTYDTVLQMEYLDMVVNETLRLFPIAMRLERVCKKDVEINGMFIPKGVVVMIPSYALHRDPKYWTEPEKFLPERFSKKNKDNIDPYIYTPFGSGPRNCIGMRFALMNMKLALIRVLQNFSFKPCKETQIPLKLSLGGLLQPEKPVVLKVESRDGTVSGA

[6] = Stability in human plasma at 10 uM measured over 240 mins by LC-ESI-MS/MS analysis; type: ADME, cell-free; settings: 4 h
Cytochrome P450 2J2 = target: T3, Cytochrome P450 2J2 (Homo sapiens, UniProt P51589); assay: Inhibition of recombinant human CYP2J2 expressed in baculovirus infected insect cells co-expressing NADPH-CYP reductase and cytochrome b5 assessed as reduction in CYP2J2-mediated EPA epoxidation by measuring sum of EEQ and DiHETEs level at 1 to 50 uM using EPA as substrate preincubated for 5 mins followed by NADPH addition and measured after 15 mins by LCMS/MS analysis; type: ADME; settings: recombinant enzyme, 0.25 h
T3 sequence (P51589 whole entry): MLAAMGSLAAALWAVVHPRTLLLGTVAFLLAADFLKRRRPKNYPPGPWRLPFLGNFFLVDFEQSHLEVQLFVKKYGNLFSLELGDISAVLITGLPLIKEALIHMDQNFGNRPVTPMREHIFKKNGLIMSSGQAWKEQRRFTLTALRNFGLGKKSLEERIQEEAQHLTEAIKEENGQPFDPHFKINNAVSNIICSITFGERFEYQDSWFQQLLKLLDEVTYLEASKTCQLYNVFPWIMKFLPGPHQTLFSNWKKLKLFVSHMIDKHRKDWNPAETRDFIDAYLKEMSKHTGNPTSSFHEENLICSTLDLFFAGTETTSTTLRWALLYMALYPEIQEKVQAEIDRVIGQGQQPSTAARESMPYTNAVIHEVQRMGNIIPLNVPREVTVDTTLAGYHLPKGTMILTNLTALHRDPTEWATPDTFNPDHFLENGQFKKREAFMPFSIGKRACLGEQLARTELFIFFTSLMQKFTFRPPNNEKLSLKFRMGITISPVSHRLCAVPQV

[7] = Aqueous solubility of the compound in pH 7.4 potassium phosphate buffer at 2 mg after 1 to 24 hrs by RP-HPLC method; type: physicochemical; settings: potassium phosphate buffer, read-out: solubility
[8] = Elimination half life in Sprague-Dawley (RjHan:SD) rat at 3 mg/kg, po administered via gavage by LC-MS analysis; type: ADME, organism-based; settings: in vivo, read-out: beta t1/2 (converted)
Cytochrome P450 2C8 = target: T4, Cytochrome P450 2C8 (Homo sapiens, UniProt P10632); assay: Inhibition of human CYP2C8 by fluorescence method; type: ADME
T4 sequence (P10632 whole entry): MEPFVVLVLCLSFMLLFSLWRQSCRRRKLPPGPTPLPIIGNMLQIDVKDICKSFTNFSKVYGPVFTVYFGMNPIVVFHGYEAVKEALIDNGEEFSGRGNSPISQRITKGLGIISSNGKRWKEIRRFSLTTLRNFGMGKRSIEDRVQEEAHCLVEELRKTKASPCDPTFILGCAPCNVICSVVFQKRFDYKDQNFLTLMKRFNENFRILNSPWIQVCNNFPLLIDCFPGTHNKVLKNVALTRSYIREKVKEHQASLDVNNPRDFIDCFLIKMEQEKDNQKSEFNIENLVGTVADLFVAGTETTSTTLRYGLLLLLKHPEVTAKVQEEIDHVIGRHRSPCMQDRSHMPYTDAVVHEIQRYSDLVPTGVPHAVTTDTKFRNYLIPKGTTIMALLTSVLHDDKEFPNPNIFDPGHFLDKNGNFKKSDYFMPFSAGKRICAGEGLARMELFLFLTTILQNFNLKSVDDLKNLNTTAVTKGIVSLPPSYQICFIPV

[9] = Negative chronotropic activity in Wistar rat neonatal cardiomyocytes assessed as decrease in basal beating rate after 7 mins by inverted microscopic method; type: functional, cell-based

Row | inhibition [1] | bioavailability [2] | hepatocyte CLint at 1 µM [4] | Papp B→A at 10 µM [5] | pIC50 (Cytochrome P450 2B6) | pIC50 (Cytochrome P450 3A4) | Stability [6] | inhibition (INH) (Cytochrome P450 2J2) | solubility [7] | half-life [8] | pIC50 (Cytochrome P450 2C8) | SMILES | Activity [3] | pEC50 [9]
1 | -1.3% | 35% | 4.77 µL/min/1e6 cells | 8 ×10⁻⁶ cm/s | < 4.30 | 5.33 | Stable | Active | 40 µg/mL (≈ 106 µM) | 216 min | < 4.30 | CNC(=O)C(=O)NCCCC/C=C\CCCCCCCCCc1nnn[nH]1 | -30.9 bpm | 8.94
2 | 0.8% | 100% | 2.48 µL/min/1e6 cells | 15.8 ×10⁻⁶ cm/s | < 4.30 | < 4.30 | Stable | Not Active | 1960 µg/mL (≈ 5500 µM) | 576 min | < 4.30 | CNC(=O)C(=O)NCCCC/C=C\CCCCCCCOCC(=O)O | -33.6 bpm | 8.85
3 | -4.1% | – | 16.5 µL/min/1e6 cells | 2.3 ×10⁻⁶ cm/s | < 4.30 | < 4.30 | Stable | Not Active | 80 µg/mL (≈ 226 µM) | – | < 4.30 | CNC(=O)C(=O)NCCCC/C=C\CCCCCCCCCC(=O)O | – | 8.24

Source: ChEMBL document CHEMBL4414645, “Development of Robust 17(R),18(S)-Epoxyeicosatetraenoic Acid (17,18-EEQ) Analogues as Potential Clinical Antiarrhythmic Agents” (J Med Chem, 2019)
